Assay results reported in ChEMBL document CHEMBL3044569, “Mini-plot field experiments using seed dressings to control slug damage to oilseed rape” (Crop Prot, 2006).
Activity calls are given as the source filed them. The calls are words filed in the database; no cut-off is given here.

What was measured:
[1] = test system: Deroceras reticulatum; test: Pesticidal activity against Deroceras reticulatum infected oilseed rape assessed as protection against slug damage studied in autumn applied as pellet at 8 kg product/ha after 1 to 4 weeks relative to untreated control; format: functional, organism-based
[2] = test system: Deroceras reticulatum; test: Pesticidal activity against Deroceras reticulatum infected oilseed rape assessed as protection against slug damage studied in autumn applied during seed dressing at 58 g a.i/kg seed after 1 to 4 weeks relative to untreated control; format: functional, organism-based
[3] = test system: Brassica napus; test: Phytotoxicity in Brassica napus (oilseed rape) at 58 g a.i/kg applied during seed dressing after 4 weeks studied in autumn (reference value: 89 +/- 2.9 %); format: organism-based; conditions: in vivo, other, 672 h
[4] = test system: Deroceras reticulatum; test: Pesticidal activity against Deroceras reticulatum infected oilseed rape assessed as protection against slug damage studied in spring applied as pellet at 8 kg product/ha after 1 to 4 weeks relative to untreated control; format: functional, organism-based
[5] = test system: Brassica napus; test: Phytotoxicity in Brassica napus (oilseed rape) at 60 g a.i/kg applied during seed dressing after 4 weeks studied in spring (reference value: 91 +/- 2.8 %); format: organism-based; conditions: in vivo, other, 672 h
[6] = test system: Deroceras reticulatum; test: Pesticidal activity against Deroceras reticulatum infected oilseed rape assessed as protection against slug damage studied in spring applied during seed dressing at 60 g a.i/kg seed after 2 to 4 weeks relative to untreated control; format: functional, organism-based
[7] = test system: Deroceras reticulatum; test: Pesticidal activity against Deroceras reticulatum infected oilseed rape assessed as protection against slug damage studied in autumn applied during seed dressing at 18 g a.i/kg seed after 1 to 4 weeks relative to untreated control; format: functional, organism-based
[8] = test system: Brassica napus; test: Phytotoxicity in Brassica napus (oilseed rape) at 18 g a.i/kg applied during seed dressing after 4 weeks studied in autumn (reference value: 89 +/- 2.9 %); format: organism-based; conditions: in vivo, other, 672 h
[9] = test system: Brassica napus; test: Phytotoxicity in Brassica napus (oilseed rape) at 20 g a.i/kg applied during seed dressing after 4 weeks studied in spring (reference value: 91 +/- 2.8 %); format: organism-based; conditions: in vivo, other, 672 h
[10] = test system: Deroceras reticulatum; test: Pesticidal activity against Deroceras reticulatum infected oilseed rape assessed as protection against slug damage studied in spring applied during seed dressing at 20 g a.i/kg seed after 2 to 4 weeks relative to untreated control; format: functional, organism-based

CC1OC(C)OC(C)OC(C)O1 (stereo not given) [METALDEHYDE] was tested, and the Activity [1] was “Active”, the Activity [2] was “Active” and the Activity [3] was 77%. For the same compound, the Activity [4] was “Active”, the Activity [5] was 90.3% and the Activity [6] was “Active”.

For CNC(=O)Oc1cc(C)c(SC)c(C)c1 [METHIOCARB], the Activity [7] was “Active”, the Activity [8] was 86.5% and the Activity [9] was 87.5%. The Activity [10] was “Active”.
